From ChEMBL document CHEMBL1201862, “PubChem BioAssay data set” (2004)
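Where inhibition never reached the appropriate level, the endpoint shown equals the highest concentration tested. Otherwise, values were interpolated linearly from a five-concentration, 48-hour dose response in 96-well plates. GI50 is the concentration that inhibits growth by half.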 Calls of active or inactive are those of the source. No stated cut-off is given here; in the data, active = GI50 up to about 1.1 µM and inactive = higher.

Key:
Assay in all cases: growth of human tumour cells (NCI), 48 h
[1] = system: OVCAR-4
[2] = system: Malme-3M
[3] = system: HOP-92
[4] = system: K562
[5] = system: SK-OV-3
[6] = system: EKVX
[7] = system: 786-0
[8] = system: A549
[9] = system: MDA-MB-231
[10] = system: NCI-H460
[11] = system: HCT-15
[12] = system: HL-60
[13] = system: SR
[14] = system: SF-295
[15] = system: PC-3
[16] = system: ACHN
[17] = system: HCC 2998
[18] = system: UACC-62
[19] = system: U-251
[20] = system: T47D

Row | SMILES | GI50 [1] | GI50 [2] | GI50 [3] | GI50 [4] | GI50 [5] | GI50 [6] | GI50 [7] | GI50 [8] | GI50 [9] | GI50 [10] | GI50 [11] | GI50 [12] | GI50 [13] | GI50 [14] | GI50 [15] | GI50 [16] | GI50 [17] | GI50 [18] | GI50 [19] | GI50 [20]
1 | Cc1ccc(NC(=O)c2cc3ccccc3c(/N=N\c3ccccc3O)c2O)c(C)c1 | 1.63 µM (inactive) | 0.809 µM (active) | 2.95 µM (inactive) | 3.09 µM (inactive) | 1.86 µM (inactive) | 2.75 µM (inactive) | 1.32 µM (inactive) | 2.25 µM (inactive) | 2 µM (inactive) | 0.44 µM (active) | 0.614 µM | 1.14 µM (inactive) | 0.373 µM (active) | 0.863 µM (active) | 1.63 µM (inactive) | 1.88 µM (inactive) | 5.06 µM (inactive) |  |  | 
2 | NC(CCC(=O)NC(CSC(=O)N(O)c1ccc(Cl)cc1)C(=O)NCC(=O)O)C(=O)O (stereo unspecified) | > 0.5 µM (active) |  | > 0.5 µM (active) | > 0.5 µM (active) | > 0.5 µM (active) | > 0.5 µM (active) | > 0.5 µM (active) | > 0.5 µM (active) | > 0.5 µM (active) | > 0.5 µM (active) | > 0.5 µM |  | > 0.5 µM (active) | > 0.5 µM (active) | > 0.5 µM (active) | > 0.5 µM (active) | > 0.5 µM (active) | > 0.5 µM (active) | > 0.5 µM (active) | 
3 | Cc1[nH]c2ccccc2c1C1=CC(=O)N(c2ccccc2)C1=O |  | 13.9 µM (inactive) | 7.74 µM (inactive) | 6.37 µM (inactive) | 34.3 µM (inactive) | 16.8 µM (inactive) | 10.8 µM (inactive) | 22.5 µM (inactive) | 28.2 µM (inactive) | 14.6 µM (inactive) | 7.76 µM | 10.7 µM (inactive) |  | 26.7 µM (inactive) | 11.9 µM (inactive) | 23.2 µM (inactive) | 1.75 µM (inactive) | 9.82 µM (inactive) | 17.3 µM (inactive) | 
4 | COc1ccc(OC)c(C#Cc2ccc(OC)c(C(=O)NCCc3ccc(F)cc3)c2)c1 | 6.32 µM (inactive) |  |  | 2.39 µM (inactive) |  | > 100 µM (inactive) | > 100 µM (inactive) | 7.55 µM (inactive) |  | 5.09 µM (inactive) | 4.45 µM | 5.13 µM (inactive) | 0.783 µM (active) | 4.67 µM (inactive) | 5.14 µM (inactive) | > 100 µM (inactive) | 2.27 µM (inactive) |  | 6.07 µM (inactive) | 2.86 µM (inactive)
5 | OCC1C2CCC3(OCCO3)C12 (stereo unspecified) | > 100 µM (inactive) | 57.3 µM (inactive) | > 100 µM (inactive) | > 100 µM (inactive) | > 100 µM (inactive) | > 100 µM (inactive) | > 100 µM (inactive) | > 100 µM (inactive) | > 100 µM (inactive) | > 100 µM (inactive) | > 100 µM |  | > 100 µM (inactive) | > 100 µM (inactive) | > 100 µM (inactive) | > 100 µM (inactive) | > 100 µM (inactive) | 17.6 µM (inactive) | > 100 µM (inactive) | 
6 | O=C1CSc2nc3ccccc3n2/C=N\N1 | > 100 µM (inactive) |  | > 100 µM (inactive) | > 100 µM (inactive) | > 100 µM (inactive) |  | > 100 µM (inactive) | > 100 µM (inactive) | > 100 µM (inactive) | > 100 µM (inactive) | > 100 µM |  | > 100 µM (inactive) | > 100 µM (inactive) | > 100 µM (inactive) | > 100 µM (inactive) | > 100 µM (inactive) | > 100 µM (inactive) | > 100 µM (inactive) | 
7 | OCCN(C1=NCCN1)/[N+](=C/c1ccc(Cl)cc1)[CH-]c1ccc(Cl)cc1 | > 100 µM (inactive) | > 100 µM (inactive) |  | 41.7 µM (inactive) | > 100 µM (inactive) | > 100 µM (inactive) | > 100 µM (inactive) | > 100 µM (inactive) | > 100 µM (inactive) | > 100 µM (inactive) | 61.8 µM |  | 99.1 µM (inactive) | > 100 µM (inactive) | 62.5 µM (inactive) | > 100 µM (inactive) | 29.4 µM (inactive) | > 100 µM (inactive) | > 100 µM (inactive) | 
8 | COc1cc(CNc2nc3c(N)cc(C(F)(F)F)cc3nc2-c2ccccc2)cc(OC)c1OC | 8.95 µM (inactive) | 40 µM (inactive) | 22.8 µM (inactive) | 12.1 µM (inactive) | > 10 µM (inactive) | 3.41 µM (inactive) | 88.3 µM (inactive) | 19 µM (inactive) |  | 25.9 µM (inactive) | 14.9 µM | > 10 µM (inactive) | > 10 µM (inactive) | 37.7 µM (inactive) |  | 23.7 µM (inactive) | 40.6 µM (inactive) | 35.2 µM (inactive) | 63.8 µM (inactive) | 
9 | CN(C)c1ccc(/C=N/NC(=O)c2cnc3ccccc3c2)cc1 | > 100 µM (inactive) | 18.6 µM (inactive) | 49.4 µM (inactive) | > 100 µM (inactive) | 26.5 µM (inactive) | 58.6 µM (inactive) | 78.5 µM (inactive) | > 100 µM (inactive) | 37.8 µM (inactive) | > 100 µM (inactive) | > 100 µM | > 100 µM (inactive) |  | 71.4 µM (inactive) | > 100 µM (inactive) | > 100 µM (inactive) | 42.1 µM (inactive) | > 100 µM (inactive) | 38.7 µM (inactive) | 
10 | CC1OC2(CC(OCc3ccccc3)C1OCc1ccccc1)OCCO2 (stereo unspecified) | 76.7 µM (inactive) | > 100 µM (inactive) | 49.9 µM (inactive) | 77.8 µM (inactive) | > 100 µM (inactive) | 35.6 µM (inactive) | 61.5 µM (inactive) | 50.7 µM (inactive) | 37 µM (inactive) | 32 µM (inactive) | 28.2 µM | 20 µM (inactive) | 21.1 µM (inactive) | 51.1 µM (inactive) | 59.8 µM (inactive) | 61.8 µM (inactive) | 71.8 µM (inactive) | 56.9 µM (inactive) | 44.5 µM (inactive) | 
11 | Cc1ccc(S(=O)OCC23CC4CC(CC(C4)C2)C3)cc1 (stereo unspecified) | > 100 µM (inactive) | > 100 µM (inactive) | > 100 µM (inactive) | > 100 µM (inactive) | > 100 µM (inactive) | > 100 µM (inactive) | > 100 µM (inactive) | > 100 µM (inactive) |  | > 100 µM (inactive) | > 100 µM | > 100 µM (inactive) | > 100 µM (inactive) | > 100 µM (inactive) |  | > 100 µM (inactive) | > 100 µM (inactive) | > 100 µM (inactive) | > 100 µM (inactive) | 
12 | Cc1cc(Cl)ccc1NC(=O)C(=O)Cc1ccc([N+](=O)[O-])c([N+](=O)[O-])c1CC(=O)C(=O)Nc1ccc(Cl)cc1C | > 100 µM (inactive) | > 100 µM (inactive) | 82 µM (inactive) | > 100 µM (inactive) | > 100 µM (inactive) | > 100 µM (inactive) | > 100 µM (inactive) | > 100 µM (inactive) |  | > 100 µM (inactive) | > 100 µM | > 100 µM (inactive) | 42.1 µM (inactive) | > 100 µM (inactive) |  | > 100 µM (inactive) | > 100 µM (inactive) | > 100 µM (inactive) | > 100 µM (inactive) | 
13 | CC(Cn1c(=O)oc2ccccc21)N(C)C (stereo unspecified) |  | > 100 µM (inactive) |  | > 100 µM (inactive) | > 100 µM (inactive) | > 100 µM (inactive) | > 100 µM (inactive) |  | > 100 µM (inactive) | > 100 µM (inactive) | > 100 µM | > 100 µM (inactive) | > 100 µM (inactive) | > 100 µM (inactive) | > 100 µM (inactive) | > 100 µM (inactive) |  | > 100 µM (inactive) | > 100 µM (inactive) | 
14 | Brc1ccc(-c2nc(-c3ccc(Br)cc3)n(-c3ccccc3)n2)cc1 | > 100 µM (inactive) |  | > 100 µM (inactive) |  | > 100 µM (inactive) | 85.5 µM (inactive) | > 100 µM (inactive) | 61.8 µM (inactive) | > 100 µM (inactive) | > 100 µM (inactive) | > 100 µM | 34.8 µM (inactive) |  | > 100 µM (inactive) | > 100 µM (inactive) | > 100 µM (inactive) |  | > 100 µM (inactive) | > 100 µM (inactive) | 12.9 µM (inactive)
15 | COc1ccc(OC)c([N+](=O)[O-])c1-c1nc2sc(C)cn2c1/C=N/N=C(N)N | 22.3 µM (inactive) | 19.1 µM (inactive) | 17.5 µM (inactive) | 2.49 µM (inactive) |  | 82.2 µM (inactive) | 44.3 µM (inactive) | 48.6 µM (inactive) | 23.7 µM (inactive) | 29.6 µM (inactive) | > 100 µM |  | < 0.01 µM (active) | 24.3 µM (inactive) | 23.3 µM (inactive) | 41 µM (inactive) | 20.6 µM (inactive) | 22.7 µM (inactive) | 31.6 µM (inactive) | 
16 | CC(=O)O[C@H]1C(=O)[C@]2(C)[C@@H](OC(=O)OCC(O)CO)C[C@H]3OC[C@@]3(OC(C)=O)[C@H]2[C@H](OC(=O)c2ccccc2)[C@]2(O)C[C@H](OC(=O)[C@H](O)[C@@H](NC(=O)c3ccccc3)c3ccccc3)C(C)=C1C2(C)C (stereo partly specified) [PACLITAXEL CERIBATE] | 17 µM (inactive) |  | 22.4 µM (inactive) | < 0.01 µM (active) | < 0.01 µM (active) | 0.0387 µM (active) | < 0.01 µM (active) | < 0.01 µM (active) | < 0.01 µM (active) | < 0.01 µM (active) | 0.143 µM | < 0.01 µM (active) | < 0.01 µM (active) | < 0.01 µM (active) | < 0.01 µM (active) | 11.1 µM (inactive) | < 0.01 µM (active) | < 0.01 µM (active) | < 0.01 µM (active) | 
